SMILES strings stand for the structures.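 Cultured in 96-well plates, cells were exposed to test compound for 48 hours across five concentrations. GI50 is the concentration that inhibits growth by half.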 The source made the active and inactive calls. Cut-off read from the data, not from the text of the source: active = GI50 up to about 1.1 µM and inactive = higher. Some results are limits rather than exact numbers.

The text below walks through data of ChEMBL document CHEMBL1201862, “PubChem BioAssay data set” (2004).

Among the test systems are LOX IMVI; ACHN; OVCAR-8; HT-29; Malme-3M; RPMI-8226; NCI/ADR-RES; OVCAR-3; M14; 786-0; MDA-N; MDA-MB-231; SN12C; U-251; SK-OV-3; NCI-H23; PC-3; UACC-257; HCT-116; CCRF-CEM.
Common to all, as to test: DTP human tumour cell line panel, 48 h

With `CC1Oc2c(c(=O)oc3ccccc23)[C@@]1(C)CC1C[C@H](C)C(=O)O1` (stereo partly specified), the GI50 in the experiment on LOX IMVI was 27.4 µM (inactive); in the experiment on ACHN, 24.4 µM (inactive); in the experiment with OVCAR-8 it was 30.5 µM (inactive); with HT-29, 27.1 µM (inactive); in the experiment on Malme-3M it was 19.5 µM (inactive); in the experiment on RPMI-8226, 33.3 µM (inactive). Moreover, the GI50 with NCI/ADR-RES was 32.7 µM (inactive); with OVCAR-3, 20.9 µM (inactive); in the experiment with M14, 20.3 µM (inactive); in the experiment with 786-0, 16.4 µM (inactive); with MDA-N, 19.9 µM (inactive); with MDA-MB-231, 31.1 µM (inactive). Moreover, the GI50 is > 10 µM (inactive) in the experiment on SN12C; 35.1 µM (inactive) with U-251; 50.5 µM (inactive) in the experiment on SK-OV-3; 19.1 µM (inactive) in the experiment on NCI-H23; 40.8 µM (inactive) in the experiment with PC-3; 35.2 µM (inactive) in the experiment on UACC-257. For the same compound, the GI50 in the experiment on HCT-116 is 15.1 µM (inactive); with CCRF-CEM it was 5.96 µM (inactive).
For the compound `COc1c(O)ccc(C2=Cc3ccc(O)cc3OC2)c1OC`, the GI50 in the experiment on LOX IMVI was 26.1 µM (inactive); in the experiment with ACHN, 6.56 µM (inactive); with OVCAR-8 it was 18 µM (inactive); with HT-29, 30.4 µM (inactive); in the experiment on Malme-3M, 18.9 µM (inactive); in the experiment on RPMI-8226, 3.51 µM (inactive). The GI50 with NCI/ADR-RES was 14.5 µM (inactive); in the experiment on OVCAR-3, 14.9 µM (inactive); in the experiment with M14 it was 21 µM (inactive); in the experiment on 786-0 it was 16.3 µM (inactive); with MDA-N, 3.68 µM (inactive); in the experiment with MDA-MB-231 it was 20.7 µM (inactive). Besides, the GI50 with SN12C was 23 µM (inactive); with U-251 it was 26 µM (inactive); with SK-OV-3, 24 µM (inactive); in the experiment on NCI-H23 it was 22.3 µM (inactive); in the experiment on PC-3, 18.6 µM (inactive); with UACC-257 it was 30.3 µM (inactive). Also, the GI50 is 24.3 µM (inactive) in the experiment on HCT-116 and 4.37 µM (inactive) with CCRF-CEM.
In the case of `O=C(O)c1nn(-c2ccccc2-c2nnc(O)nc2O)c(=O)[nH]c1=O`, the GI50 in the experiment with LOX IMVI, in the experiment on ACHN, with OVCAR-8, with HT-29, with Malme-3M and in the experiment on RPMI-8226 was > 100 µM (inactive) each time. Also, the GI50 in the experiment on NCI/ADR-RES, in the experiment on OVCAR-3, in the experiment with M14, in the experiment on 786-0, in the experiment with MDA-N and with MDA-MB-231 was > 100 µM (inactive) in each case. For the same compound, the GI50 in the experiment on SN12C, in the experiment on U-251, in the experiment on SK-OV-3, in the experiment on NCI-H23, in the experiment with PC-3 and with UACC-257 was > 100 µM (inactive) in each case. Also, the GI50 is > 100 µM (inactive) in the experiment with HCT-116 and 51.8 µM (inactive) in the experiment on CCRF-CEM.
Turning to `Cc1ccc(S(=O)(=O)n2c3c(c4ccccc42)CCN2CCC(Br)C[C@@H]32)cc1` (stereo partly specified), the GI50 was 13.9 µM (inactive) in the experiment with LOX IMVI; 17 µM (inactive) in the experiment with ACHN; 12.6 µM (inactive) with OVCAR-8; 13.3 µM (inactive) in the experiment with HT-29; 13.2 µM (inactive) with Malme-3M; 6.18 µM (inactive) in the experiment with RPMI-8226. In addition, the GI50 in the experiment with NCI/ADR-RES is 16.2 µM (inactive); with OVCAR-3 it was 11.1 µM (inactive); in the experiment on M14, 12.9 µM (inactive); with 786-0, 16.6 µM (inactive); in the experiment on MDA-N, 4.42 µM (inactive); with MDA-MB-231, 16.5 µM (inactive). Besides, the GI50 in the experiment on U-251 is 12.4 µM (inactive); in the experiment on SK-OV-3 it was 15.7 µM (inactive); in the experiment with NCI-H23, 11.7 µM (inactive); with PC-3, 13.1 µM (inactive); in the experiment with UACC-257 it was 7.23 µM (inactive); with CCRF-CEM, 12.2 µM (inactive).
As to `CCN(CC)CCOc1ccc(N2C(=O)c3cc(OC)c(OC)cc3C2=O)cc1`, the GI50 in the experiment on LOX IMVI, in the experiment on ACHN, in the experiment on OVCAR-8, with HT-29, in the experiment with Malme-3M and in the experiment on RPMI-8226 was > 100 µM (inactive) in each case. Further, the GI50 with NCI/ADR-RES, with OVCAR-3, with M14, in the experiment on 786-0, with MDA-N and in the experiment on MDA-MB-231 was > 100 µM (inactive) in each case. The GI50 in the experiment on SN12C, in the experiment with U-251, in the experiment on SK-OV-3, with NCI-H23, in the experiment on PC-3 and with UACC-257 was > 100 µM (inactive) in each case. The GI50 in the experiment with HCT-116 and in the experiment on CCRF-CEM was > 100 µM (inactive) in each case.
As to `O=C(CN1CCNCCN(CC(=O)N2CCCCC2)CCNCC1)N1CCCCC1`, the GI50 with LOX IMVI was > 100 µM (inactive); in the experiment on ACHN it was > 100 µM (inactive); in the experiment with OVCAR-8 it was > 100 µM (inactive); in the experiment on HT-29 it was 18.2 µM (inactive); in the experiment with Malme-3M, > 100 µM (inactive); with RPMI-8226, > 100 µM (inactive). The GI50 is > 100 µM (inactive) in the experiment on NCI/ADR-RES; > 100 µM (inactive) in the experiment with OVCAR-3; > 100 µM (inactive) in the experiment on M14; 43.6 µM (inactive) in the experiment with 786-0; > 100 µM (inactive) in the experiment with MDA-N; > 100 µM (inactive) in the experiment with MDA-MB-231. Further, the GI50 with SN12C is > 100 µM (inactive); with U-251 it was 93.1 µM (inactive); in the experiment on SK-OV-3, > 100 µM (inactive); with PC-3 it was > 100 µM (inactive); in the experiment with UACC-257 it was > 100 µM (inactive); in the experiment with HCT-116, 42.5 µM (inactive). For the same compound, the GI50 in the experiment with CCRF-CEM is 52.4 µM (inactive).
Regarding `Cc1cc(N(CCOS(C)(=O)=O)CCOS(C)(=O)=O)ccc1/C=N/c1ccc(-c2nc(Cc3ccccc3)sc2C)cc1`, the GI50 in the experiment on LOX IMVI was 5.37 µM (inactive); in the experiment with ACHN it was 0.404 µM (active); in the experiment with OVCAR-8, 7.53 µM (inactive); in the experiment with HT-29, 5.3 µM (inactive); in the experiment with Malme-3M it was 11.4 µM (inactive); in the experiment with RPMI-8226, 3.82 µM (inactive). Also, the GI50 with NCI/ADR-RES was 10.6 µM (inactive); in the experiment with OVCAR-3, 2.87 µM (inactive); in the experiment with M14 it was 4.86 µM (inactive); with 786-0, 1.28 µM (inactive); in the experiment with MDA-N it was 11.8 µM (inactive); with MDA-MB-231 it was 15.3 µM (inactive). Besides, the GI50 in the experiment on SN12C is 5.4 µM (inactive); in the experiment on U-251, 6.64 µM (inactive); in the experiment on SK-OV-3, 0.494 µM (active); in the experiment with NCI-H23, 2.91 µM (inactive); in the experiment on PC-3, 10.3 µM (inactive); in the experiment with UACC-257, 12.1 µM (inactive). Also, the GI50 in the experiment with HCT-116 was 15.2 µM (inactive); in the experiment with CCRF-CEM it was 0.471 µM (active).
For the compound `Nc1nc(N)c2ncn(Cc3c(Cl)cccc3Cl)c2n1`, the GI50 in the experiment on LOX IMVI, in the experiment with ACHN, with OVCAR-8, with HT-29, in the experiment on Malme-3M and in the experiment with RPMI-8226 was > 100 µM (inactive) throughout. Further, the GI50 in the experiment with NCI/ADR-RES was 50.5 µM (inactive); in the experiment on OVCAR-3, > 100 µM (inactive); with M14 it was > 100 µM (inactive); in the experiment on 786-0, > 100 µM (inactive); in the experiment with MDA-N it was > 100 µM (inactive); in the experiment on MDA-MB-231, > 100 µM (inactive). Besides, the GI50 in the experiment with SN12C, with U-251, in the experiment with SK-OV-3, in the experiment on NCI-H23, in the experiment with PC-3 and in the experiment with UACC-257 was > 100 µM (inactive) each time. The GI50 with HCT-116 and in the experiment on CCRF-CEM was > 100 µM (inactive) throughout.
Turning to `CC12CCC(C(Br)(Br)C1=O)C2(C)C` (stereo unspecified), the concentration for 50% growth inhibition (GI50) in the experiment on LOX IMVI was 0.611 µM (active); with ACHN, 0.553 µM (active); in the experiment with OVCAR-8 it was 1.69 µM (inactive); in the experiment with HT-29 it was 0.228 µM (active); in the experiment with Malme-3M, 0.056 µM (active); in the experiment on RPMI-8226 it was 0.0759 µM (active). Further, the GI50 with NCI/ADR-RES is 0.131 µM (active); in the experiment on OVCAR-3, 0.507 µM (active); in the experiment on M14, 0.125 µM (active); in the experiment with 786-0, 0.0545 µM (active); in the experiment on MDA-N, 0.196 µM (active); in the experiment with MDA-MB-231 it was 0.104 µM (active). For the same compound, the GI50 is 0.904 µM (active) in the experiment on SN12C; < 0.0469 µM (active) with U-251; 1.51 µM (inactive) with SK-OV-3; 0.123 µM (active) in the experiment with NCI-H23; 1.07 µM (active) with PC-3; 2.74 µM (inactive) in the experiment with UACC-257. Also, the GI50 is 0.128 µM (active) in the experiment on HCT-116 and < 0.0166 µM (active) in the experiment on CCRF-CEM.
Consider `CCOC(=O)c1c(-c2ccc(Cl)cc2)c(C#N)c(=S)n(C2OC(COC(C)=O)C(OC(C)=O)C(OC(C)=O)C2OC(C)=O)c1-c1ccccc1` (stereo unspecified), for which the GI50 with LOX IMVI, in the experiment on ACHN, with HT-29, in the experiment with Malme-3M, in the experiment with RPMI-8226 and in the experiment with NCI/ADR-RES was > 100 µM (inactive) in each case. Besides, the GI50 is > 100 µM (inactive) with OVCAR-3; 57.5 µM (inactive) with M14; > 100 µM (inactive) with 786-0; > 100 µM (inactive) with MDA-N; > 100 µM (inactive) in the experiment with MDA-MB-231; > 100 µM (inactive) in the experiment with SN12C. The GI50 in the experiment on U-251, with SK-OV-3, with NCI-H23, in the experiment on PC-3, in the experiment on UACC-257 and in the experiment with HCT-116 was > 100 µM (inactive) throughout. The GI50 in the experiment with CCRF-CEM was > 100 µM (inactive).
